This passage reports IC50 and inhibition results from US20110071197A1, “BIS-ARYL COMPOUNDS FOR USE AS MEDICAMENTS” (priority 2008, published 2011).

In general, pIC50 refers to the IC50 on a negative log10 scale, so that one unit is a factor of ten. The term inhibition denotes the drop in the measured response relative to a control, in per cent.

pIC50: −log10 of the molar value.

The target in test [1] is T1, Recombinant human LTC4 synthase (Homo sapiens, UniProt Q16873).
T1 construct: made in house; host or cells: Pichia pastoris
T1 sequence (Q16873 1-150): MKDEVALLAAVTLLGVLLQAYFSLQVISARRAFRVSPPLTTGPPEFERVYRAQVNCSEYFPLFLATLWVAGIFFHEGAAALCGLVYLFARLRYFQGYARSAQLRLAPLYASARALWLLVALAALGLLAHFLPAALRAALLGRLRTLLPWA
As to the kind of experiment: LTC4 synthase in vitro assay (HPLC method). The format is biochemical. Conditions: inhibition of LTC4 synthase. The procedure:
In the assay, LTC4 synthase catalyses the reaction where the substrate LTA4 methyl ester is converted to the corresponding LTC4 methyl ester. Recombinant human LTC4 synthase is expressed in Piccia pastoralis and the purified enzyme is dissolved in 25 mM Tris-buffer pH 7.8 and stored at −80° C. The assay is performed in phosphate buffered saline (PBS) pH 7.4, supplemented with 5 mM glutathione (GSH). The reaction is terminated by addition of acetonitrile/MeOH/acetic acid (50/50/1). The assay is performed at rt in 96-well plates. Analysis of the formed LTC4 methyl ester is performed with reversed phase HPLC (Waters 2795 utilizing an Onyx Monolithic C18 column). The mobile phase consists of acetonitrile/MeOH/H2O (32.5/30/37.5) with 1% acetic acid pH adjusted with NH3 to pH 5.6, and absorbance measured at 280 nm with a Waters 2487 UV-detector.
The following is added chronologically to each well: • 1. 50 μl assay buffer, PBS with 5 mM GSH. • 2. 0.5 μl inhibitor in DMSO (final conc. 1 nM-10 μM). • 3. 2 μl LTC4 synthase in PBS. The total protein concentration in this solution is 0.025 mg/ml. Incubation of the plate at room temperature for 10 minutes. • 4. 1-1.5 μl LTA4 methyl ester (final conc. 10 μM). Incubation of the plate at rt for 1 min. • 5. 50 μl stop solution.
80 μl of the incubation mixture is analysed with HPLC.

The target in test [2] is T1, Recombinant human LTC4 synthase. The experiment in a line: LTC4 synthase in vitro assay (HTRF detection of LTC4). The format is biochemical. Conditions: HTRF method; for inhibition at 10 µM: total concentration of title compound in the assay 10 μM. In short, it runs like this:
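Pichia-expressed recombinant human LTC4 synthase at 0.5 μg/ml total protein in PBS pH 7.4 with 5 mM GSH, preincubated 10 min at RT with inhibitor (10 μM final). LTA4 (2.5 μM final) was then added for 5 min at RT. LTC4 formed was read by HTRF.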
In general terms: Time-resolved FRET reads energy transfer from a long-lived donor to a nearby acceptor.

In the case of `CCCCOc1ccc(S(=O)(=O)Nc2ccc(Oc3cccc(S(=O)(=O)Nc4ccc(Cl)cc4)c3)cc2C(=O)O)cc1` [19:1, 2-(4-Butoxy-benzenesulfonylamino)-5-[3-(4-chloro-phenylsufamoyl)-phenoxy]-benzoic acid], the pIC50 in test [1] is 5.94. Also, in test [2], the inhibition at 10 µM is 100%.

As to `O=C(Nc1ccc(Sc2ccc(NC(=O)Nc3ccc(C(F)(F)F)cc3)c(C(=O)O)c2)cc1)Nc1ccc(C(F)(F)F)cc1` [14:6, 2-[3-(4-trifluoromethyl-phenyl)ureido]-5-{4-[3-(4-trifluoromethylphenyl)-ureido]phenylsulfanyl}-benzoic acid], the pIC50 in test [1] is 6.35. The inhibition at 3 µM in test [2] (compound concentration 3 μM) turned out to be 80%.

Consider `CC(C)Oc1ccc(C(=O)Nc2ccc(Oc3ccc(NC(=O)c4ccccc4)cc3)cc2/C=C/C(=O)O)cc1` [Example 22:3, (E)-3-[5-(4-Benzoylaminophenoxy)-2-(4-isopropoxy-benzoylamino)-phenyl]acrylic acid], for which the pIC50 in test [1] was 5.29. The inhibition at 10 µM in test [2] is 72%.

With `CCCCOc1ccc(S(=O)(=O)Nc2ccc(Oc3cccc(Oc4ccc(F)c(F)c4)c3)cc2C(=O)O)cc1` [28:1], the pIC50 in test [1] was 6.20. Besides, the inhibition at 10 µM in test [2] was found to be 98%.
